Test results as given in PubChem BioAssay (NCI).
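Grown in 96-well plates, cells were treated for 48 hours with each compound at five concentrations. Insufficient inhibition: endpoint recorded as highest concentration tested. GI50: concentration for 50% inhibition of growth. TGI: total growth inhibition.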

Experiments:
Assay in all cases: inhibition of tumour cell growth, NCI panel, 48 h
UO-31 renal = tested on: UO-31 renal
OVCAR-4 ovarian = tested on: OVCAR-4 ovarian
SNB-19 CNS = tested on: SNB-19 CNS
SN12C renal = tested on: SN12C renal
IGROV1 ovarian = tested on: IGROV1 ovarian
RPMI-8226 leukemia = tested on: RPMI-8226 leukemia
COLO 205 colon = tested on: COLO 205 colon
K-562 leukemia = tested on: K-562 leukemia
NCI-H460 lung = tested on: NCI-H460 lung
OVCAR-8 ovarian = tested on: OVCAR-8 ovarian

Compound	TGI (UO-31 renal) [µM]	TGI (OVCAR-4 ovarian) [µM]	TGI (SNB-19 CNS) [µM]	TGI (SN12C renal) [µM]	TGI (IGROV1 ovarian) [µM]	TGI (RPMI-8226 leukemia) [µM]	TGI (COLO 205 colon) [µM]	TGI (K-562 leukemia) [µM]	TGI (NCI-H460 lung) [µM]	TGI (OVCAR-8 ovarian) [µM]	GI50 (UO-31 renal) [µM]	GI50 (OVCAR-4 ovarian) [µM]	GI50 (SNB-19 CNS) [µM]	GI50 (SN12C renal) [µM]	GI50 (IGROV1 ovarian) [µM]	GI50 (RPMI-8226 leukemia) [nM]	GI50 (COLO 205 colon) [µM]	GI50 (K-562 leukemia) [µM]	GI50 (NCI-H460 lung) [µM]	GI50 (OVCAR-8 ovarian) [µM]
Nc1ncnc2c1ncn2C1CCC(CO)O1 (configuration not stated)	> 100	> 89.1	> 100	> 100	> 100	> 100	> 100	> 100	> 100	> 79.4	–	–	–	–	–	–	–	–	–	–
CCOP(=O)(OCC)C(Cc1ccc(OC)c(OC)c1)N=C(c1ccccc1)c1ccccc1 (configuration not stated)	> 100	> 100	> 100	> 100	> 100	44.3	38.1	22.4	> 100	> 100	–	–	–	–	–	–	–	–	–	–
CC(C)=CCc1c(C)cc2cc3c(c(O)c2c1O)C(O)=CC(=O)C3(CC=C(C)C)C/C=C(\C)CO (configuration not stated)	64.4	87	86.2	76.8	79.6	67.6	80.1	90.9	98.9	76.8	–	–	–	–	–	–	–	–	–	–
CC[C@@H](C(=O)[C@@H](C)[C@@H](O)[C@H](C)CCc1ccc(C)c(O)c1C(=O)O)[C@H]1O[C@](CC)([C@H]2CC[C@](O)(CC)[C@H](C)O2)C[C@@H]1C	12.4	19.2	5.95	10	13.3	5.28	4.76	3.05	9.47	14.3	–	–	–	–	–	–	–	–	–	–
COc1c2c(cc3c(CCc4ccccc4)cc(=O)oc13)CCC(C)(C)O2	> 100	–	–	> 100	> 100	> 100	> 100	> 100	> 100	> 100	–	–	–	–	–	–	–	–	–	–
CCOc1ccc2c(ccc(/C=C\c3cc(C)c4cccnc4c3O)[n+]2C)c1	35.1	18.6	30.7	15.5	21.1	13.2	5.82	26.8	10.2	38.8	–	–	–	–	–	–	–	–	–	–
O=C1CN2C(Cl)(Cl)C2(c2ccccc2)c2cc(Cl)ccc2N1CC(F)(F)F (configuration not stated)	> 100	43.7	–	30.6	73.7	78.5	39.3	72.1	35.9	> 100	–	–	–	–	–	–	–	–	–	–
CCOc1ccc(/C=C/[N+](=O)[O-])cc1	28.8	> 100	22	28.3	> 100	6.17	15.5	> 100	> 100	27.1	13.8	23.4	8.95	14.7	21.8	2140	4.71	4.52	26.8	13.2
[C-]#[O+].[Cl][Sn]([Cl])[Cl].[Cl][Sn]([Cl])[Cl].[Pt].c1ccncc1	> 100	> 100	> 100	> 100	> 100	> 100	> 100	> 100	> 100	> 100	–	–	–	–	–	–	–	–	–	–
O=C(O)c1cc(=O)[nH]c(=S)[nH]1	> 100	> 100	> 100	> 100	> 100	> 100	> 100	> 100	> 100	> 100	–	–	–	–	–	–	–	–	–	–
O=C(Nc1nc2ccc([N+](=O)[O-])cc2[n+]([O-])n1)C(F)(F)F	> 100	> 100	> 100	> 100	44.5	41.4	> 100	79.3	> 100	> 100	–	–	–	–	–	–	–	–	–	–
CC(C)=CC(=O)OC1C2C(C)C(=O)OC2C(O)C(C)C2C=CC(=O)C21C (configuration not stated)	10.5	6.42	17.4	8.19	7.48	11.7	5.83	25.3	6.33	9.59	–	–	–	–	–	–	–	–	–	–
